This is an account of results in patent publication US9107865B2, “Methods for producing oocysts” (Zoetis Services LLC, priority 2001, dated 2015).

Molecules are shown by their SMILES. Like-named read-outs stand apart in the source and are kept apart here.

One assay concerns Scopulariopsis brumptii. Description: Fungistatic or fungicidal properties of reagents (TSB flasks, then MEA plates). For Growth in TSB Flasks (Day 28): key: −: no growth was observed; +: growth was observed. For Growth on MEA plates (Day 14): key: −: no growth was observed; +: growth was observed. The conditions noted are these: for Growth on MEA plates (Day 14): 1 mL of flask plated on day 28 onto MEA plate, 14 days; for Growth on MEA plates (Day 14) / Growth in TSB Flasks (Day 28): room temperature; for Growth in TSB Flasks (Day 28): TSB flasks inoculated with fungal stock, 28 days; for fungistatic / fungicidal assessment: flask and plate tests taken together. The class given is cell-based. On the procedure:
An experiment was conducted to assess the fungistatic or fungicidal properties of the reagents used in the collection and sporulation medium described in Example 3. Initial sterility tests were performed using trypticase soy broth (TSB). A fungal stock was created by suspending fungal scrapings from a Scopulariopsis brumptii stock culture into 25 mL PBS and filtering this material through a coarse Swinney filter (˜100 μm). Two hundred […] of this fungal stock was inoculated into three TSB flasks for treatments (Trt) 2-11.
Treatments evaluated various of the components of the collection/sporulation/sanitization medium described in Example 3, either alone or in combination. Sodium propionate was also tested in addition to propionic acid. Treatments were evaluated at room temperature for 28 days; then, on day 28 of incubation, one mL of each replicate flask for all treatments was plated onto a malt extract agar (MEA) plate with chloramphenicol (50 μg/mL) and penicillin-G (100 U/mL) and incubated at room temperature for 14 days.

For assay [1], the system named is extraneous viable bacteria and fungi. Description: 9CFR 113.27 purity test after sanitization of oocysts. The conditions noted are these: sanitized E. maxima oocysts. On the procedure:
(§1) An experiment was performed to investigate the utility of the sporulation medium described in Example 3 as a sanitization reagent. E. maxima oocysts were produced in broilers and purified using a density flotation technique. Oocysts were sporulated for 72 h using 10% citric acid, 0.25% propionic acid, 0.75% hydrogen peroxide, and 1 mL/L Antifoam A. After sporulation, the oocysts were centrifuged and resuspended in sterile-filtered sporulation medium (10% citric acid, 0.25% propionic acid, 0.75% hydrogen peroxide, 1 mL/L Antifoam A) and incubated overnight at room temperature with stirring. After sanitization, buffer exchange was accomplished via diafiltration using 200 mM potassium phosphate, pH 7, followed by PBS without preservatives. The bulk sample was stored in glass bottles approximately one-third full at 4° C. Subsamples of the final product were sent to a commercial testing laboratory for purity tests according to U.S. Department of Agriculture (USDA) guidelines.
(§2) Two experimental batches of E. maxima oocysts were prepared (Run A and Run B). Each batch was purified using sieving and flotation procedures. Each batch was then split and two methods of sanitization were tested (sodium hypochlorite and hydrogen peroxide with citric acid and propionic acid). Samples from each test were subjected to several purity tests including 9CFR tests and two PCR methods for virus detection.

The next assay concerns mycoplasma. Nature of the assay: 9CFR 113.28 purity test after sanitization of oocysts. As to conditions: sanitized E. maxima oocysts. How it is done: as §1, §2
The test system of another assay is salmonella. Description: 9CFR 113.30 purity test after sanitization of oocysts. As to conditions: sanitized E. maxima oocysts. How it is done: as §1, §2
The subject of the next assay is avian lymphoid leukosis. The conditions noted are these: sanitized E. maxima oocysts.
The next assay relates to hemagglutinating virus. Description: 9CFR 113.34 purity test after sanitization of oocysts. The conditions noted are these: sanitized E. maxima oocysts. How it is done:
as §1, §2

In assay [2] the test system is Extraneous agents in master seed. Description: 9CFR 113.55 purity test after sanitization of oocysts. The conditions noted are these: sanitized E. maxima oocysts. How it is done: as §2
In assay [3] the test system is Chicken Infectious Anemia Virus. Description: PCR virus detection after sanitization of oocysts. The conditions noted are these: sanitized E. maxima oocysts. On the procedure: as §2
In assay [4] the test system is Reticuloendothelial Virus. Description: PCR virus detection after sanitization of oocysts. As to conditions: sanitized E. maxima oocysts. On the procedure:
as §2

Method for avian lymphoid leukosis: E. maxima oocysts were produced in broilers and purified using a density flotation technique. […] After sanitization, buffer exchange was accomplished via diafiltration using 200 mM potassium phosphate, pH 7, followed by PBS without preservatives. The bulk sample was stored in glass bottles approximately one-third full at 4° C. Subsamples of the final product were sent to a commercial testing laboratory for purity tests according to U.S. Department of Agriculture (USDA) guidelines.

Take `O=C(O)CC(O)(CC(=O)O)C(=O)O` [Trt 5, citric acid]: in the assay on Scopulariopsis brumptii, the “Growth on MEA plates (Day 14)” value is listed as “−” and the “Growth in TSB Flasks (Day 28)” value is given as “−”.

Take `CCC(=O)[O-].[Na+]` [Trt 10, sodium propionate]: in the assay on Scopulariopsis brumptii, the “Growth on MEA plates (Day 14)” value is recorded as “+” and the “Growth in TSB Flasks (Day 28)” value was “+”.

With `[Na+].[O-]Cl` [Hypochlorite, sodium hypochlorite], the “9CFR 113.27 Detection of extraneous viable bacteria and fungi in live vaccine” value in assay [1] (Example 6, Run A) was “Negative”; in [1] (Example 6, Run B), “Negative”. Besides, the “9CFR 113.28 Detection of mycoplasma” value in the assay on mycoplasma (Example 6, Run A) is on record as “Negative”; in the assay with mycoplasma (Example 6, Run B) it was “Negative”. In addition, the “9CFR 113.30 Detection of salmonella” value is given as “Negative” with salmonella (Example 6, Run A) and “Negative” in the assay with salmonella (Example 6, Run B). Moreover, the “9CFR 113.31 Detection of avian lymphoid leucosis” value with avian lymphoid leukosis (Example 6, Run A) is on record as “Negative”; with avian lymphoid leukosis (Example 6, Run B) it was “Negative”. Further, the “9CFR 113.34 Detection of hemagglutinating virus” value with hemagglutinating virus (Example 6, Run A) is on record as “Negative”; in the assay on hemagglutinating virus (Example 6, Run B) it was “Negative”. The “9CFR 113.55 Extraneous agents in master seed” value is reported as “Negative” in assay [2] (Example 6, Run A) and “Negative” in assay [2] (Example 6, Run B). The “Chicken Infectious Anemia Virus by PCR” value is recorded as “Negative” in [3] (Example 6, Run A) and “Negative” in assay [3] (Example 6, Run B). Moreover, the “Reticuloendothelial Virus by PCR” value in assay [4] (Example 6, Run A) is “Negative”; in assay [4] (Example 6, Run B), “Negative”.

On to `CCC(=O)[O-].[Na+]` [sodium propionate], for which, in the assay with Scopulariopsis brumptii, the “fungistatic / fungicidal assessment” value is on record as “did not inhibit fungal growth”.

For `OO` [Trt 3, hydrogen peroxide], in the assay on Scopulariopsis brumptii, the “Growth on MEA plates (Day 14)” value is recorded as “−” and the “Growth in TSB Flasks (Day 28)” value is given as “−”.

For `CCC(=O)O` [Trt 4, propionic acid], in the assay with Scopulariopsis brumptii, the “Growth on MEA plates (Day 14)” value was “+”, the “Growth in TSB Flasks (Day 28)” value is on record as “−” and the “fungistatic / fungicidal assessment” value is recorded as “fungistatic”.
